Values quoted from earlier work as cited in patent publication US20070231316A1, “Treatment of Cognitive Dysfunction in Lupus” (priority 2003, published 2007).

Experiments:
[1] = NP-SLE patients, after treatment
[2] = in vivo

Row | Molecule | GFAP level in CSF [1] | NFL level in CSF [1] | effect on blood-brain barrier [2]
1 | O=P1(N(CCCl)CCCl)NCCCO1 (stereo not drawn) [cyclophosphamide] | marked decline | marked decline | –
2 | lipopolysaccharide [LPS] | – | – | temporary opening of the blood-brain barrier
